What all share (type): cell-based, human
For assay [1], the system named is angiopoietin 2 (Ang2). Nature of the assay: ELISA of angiopoietin 2 secretion in culture medium of NCl–N87 cells. The following applies: NCl–N87, fMLF 10 nM, 48 h. Here is the method: (§1) Secretion of VEGFA and angiopoietin 2 (Ang2) in the culture medium of NCl–N87 and AGS cells was assessed after 48 h of drug treatment using ELISA methods (Fig. 10). […] Once again, the effects were more pronounced in NCl–N87 cells than in AGS, and the effect of 25a was more pronounced as compared to 24a. The co-administration of fMLF (10 nM) partially counteracted the effects.
(§2) Fig. 10. Effect of 24a and 25a on the secretion of VGFA (A) and Ang2 (B) in NCl–N87 and AGS cell lines. The ELISA assays were assessed on cells after 48 h of drug treatment with fMLF (10 nM) and 24a or 25a (1, 5 μM) administrated alone or combining the lowest dose of 24a or 25a with fMLF. The concentration of VEGFA (A) or Ang2 (B) was determined in the medium and normalized for the cell number. The values ± SD, obtained from three independent experiments expressed as pg/mL, were shown in the relative graphs. Statistical analysis was assessed by comparing the values obtained using a single drug treatment to those of corresponding untreated cells and the combined treatments to those of the single treatments. **p < 0.001; ***p < 0.0002; ****p < 0.0001. […]
(In general: An ELISA detects its analyte on a solid surface through an enzyme-linked reagent.)

Assay [2] relates to VEGFA mRNA. Nature of the assay: Real-time PCR of VEGFA mRNA expression in NCl–N87 and AGS cells. The following applies: 24 h, fMLF 10 nM, antagonists 1 or 2 μM, normalized to GAPDH, untreated = 1. The source says:
(§3) It has been reported that FPR1 can exert a tumor suppressor function in human GC by inhibiting angiogenesis and that silencing of the receptor increases the constitutive proangiogenic potential of GC cells. Therefore, we assessed the effect of 24a and 25a on the mRNA expression level and secretion of the proangiogenic factors, the vascular growth factor A (VEGFA), and the angiopoietin 2. […] These effects were more pronounced in NCl–N87 cells and resulted more strongly for 25a than 24a. The values obtained after each treatment were normalized to the expression of GAPDH and compared to the reference value of the two genes in untreated cells, which were set equal to 1 (Fig. 9).
(§4) Fig. 9. Effect of 24a and 25a on mRNA expression of VGFA and ANGPT2 in NCl–N87 and AGS cell lines. Real-time PCR experiments in NCl–N87 and AGS cells with specific primers for VEGFA and ANGPT2 genes. The mRNA expression was normalized on the GAPDH housekeeping gene. Expression analysis was performed after treatment with fMLF (10 nM) and 24a or 25a (1, 2, 5 μM) administrated alone or combining the lowest dose of 24a or 25a with fMLF. All expression values were calculated against the value of untreated PTX-sensitive cells, set equal to 1. Statistical analysis was assessed by comparing the values obtained using single drug treatment to those of corresponding untreated cells and the combined treatments to those of single treatments. The values of untreated PTX-resistant cells were compared with those of untreated PTX-sensitive ones. Data were mean ± SD (n = 3). *p < 0.05, **p < 0.001, ***p < 0.0002, ****p < 0.0001.
(§5) Total RNA was extracted from FPR1 antagonist-treated NCl–N87 and AGS treated cells using the Qiagen RNeasy Mini Kit (Qiagen, Hilden, Germany) following the manufacturer’s instructions. Samples were retro-transcribed using the iScript Advanced cDNA Synthesis Kit (Bio-Rad Laboratories, California, USA). Real-Time-PCRs analyzed cDNA samples for the evaluation of VEGFA and ANGPT2 expression. […] Relative quantification was performed using the ddCT method.

Assay [3] relates to VEGFA. Nature of the assay: ELISA of VEGFA secretion in culture medium of NCl–N87 cells. The following applies: NCl–N87, fMLF 10 nM, 48 h. Here is the method: as §1, §2
Assay [4] concerns AGS cells. Kind of assay: Scratch migration assay in AGS cells. As to conditions: fMLF 10 nM, 24 h incubation. Here is the method:
The effect of FPR1 blockade on cell migration was assessed using the scratch assay, an easy and well-developed method to measure cell migration in vitro. […] Conversely, 24a and 25a reduced the migration rate in a dose-dependent manner. The effect was more pronounced in NCl–N87 as compared to AGS cells. […] The effect was FPR1-mediated, as it was counterbalanced by co-administration of the agonist fMLF (10 nM).
Fig. 8. Effect of 24a and 25a on cell migration in NCl–N87 and AGS cell lines. Scratch assay assessed on cells treated with fMLF (10 nM) and 24a or 25a (1, 1.5, 2 μM) administrated alone or combining the lowest dose of 24a or 25a with fMLF. The cells were microscopically analyzed at the time of the scratch (T0) and after 24 h (T1). The relative migration rate was calculated by setting the percentage of migration of the control cells at time T1 equal to 1 and comparing the migration percentage of the cells after each drug treatment to this value. Representative original photographs (panel A) and quantitative analysis (panel B) of the cell-free scratch path ares. […] Statistical analysis was assessed by comparing the values obtained using a single drug treatment to those of corresponding untreated cells and the combined treatments to those of the single treatments, *p < 0.05, **p < 0.001, ****p < 0.0001. […]

Assay [5] deals with NCl–N87 cells. Nature of the assay: Scratch migration assay in NCl–N87 cells. As to conditions: NCl–N87, fMLF 10 nM, 24 h incubation. From the text:
The results are representative of three independent experiments.

Assay [6] deals with angiopoietin 2 (Ang2). Kind of assay: ELISA of angiopoietin 2 secretion in culture medium of AGS cells. The following applies: fMLF 10 nM, 48 h. As to the method: as §1, §2
The test system of assay [7] is ANGPT2 mRNA. Nature of the assay: Real-time PCR of ANGPT2 mRNA expression in NCl–N87 and AGS cells. As to conditions: 24 h, fMLF 10 nM, antagonists 1 or 2 μM, normalized to GAPDH, untreated = 1.
From the text: as §3, §4, §5
Background: Real-time PCR tracks product formation cycle by cycle.

For assay [8], the system named is VEGFA. Nature of the assay: ELISA of VEGFA secretion in culture medium of AGS cells. As to conditions: fMLF 10 nM, 48 h. As to the method:
as §1, §2

Take “N-formyl-methionyl-leucyl-phenylalanine [fMLF]”: the “reduction in the secretion of Ang2” value in assay [1] is given as about 22%; in assay [6], about 23%. In addition, the “VEGFA mRNA expression” value in assay [2] is on record as “reduced expression”. Further, the “reduction in the secretion of VEGFA” value in assay [3] is “approximately 40%”; in assay [8] it was about 35%. The “increase in cell mobility” value in assay [4] was 32%; in assay [5], 41%. Moreover, in assay [7], the “angiopoietin 2 (ANGPT2) mRNA expression” value is “reduced expression”.
